How the values were obtained:
Aβ42 [1] = biological target: T1, Aβ42 (Homo sapiens, UniProt P05067); assay: ThT-binding assay, inhibition of Aβ42 aggregation; format: biochemical; details: for % amyloid of Aβ42: Aβ42 10 µM; for Normalized ThT fluorescence: Aβ42:compound 1:5
T1 construct: purchased rPeptide (USA)
Procedure: ThT is known to intercalate within the amyloid fibrils resulting in fluorescence emission proportionate to the amyloid growth.
The resulting thin films were dissolved in PBS (100 mM, pH 7.4) and sonicated for 5 min to get a stock concentration of 50 µM, which immediately diluted to required concentration for an experiment. Stock solutions of ThT (4 mM in PBS) and hybrid molecules (10 mM in PBS) were prepared. All the stock solutions were diluted according to the requirement.
The experiment was performed according to the previous report. […] […] Excitation and emission wavelengths were set at 440 nm and 485 nm, respectively.

[2] = XTT assay, cytotoxicity of the hybrid molecules towards HEK-293; format: cell-based; details: human, HEK-293 cells
Procedure: To this end, we first tested whether the hybrid molecules carried any cytotoxicity themselves. […] No considerable toxicity (≥95% viability) was caused by the hybrid molecules towards either cell line, even at the highest concentration of 250 µM (Fig. 8).
The SH-SY5Y and HEK-293 cell lines (2 × 10^5 cells/mL) were cultured in 96-well tissue microplates (100 µL/well) and allowed to adhere overnight at 37 °C. The conjugate molecules were dissolved in DMEM:nutrient mixture F12 (Ham’s) (1:1) (Biological Industries, Israel) at different concentrations. The negative control was prepared as medium without hybrid molecules and treated in the same manner. 100 µL of medium with or without hybrid molecules were added to each well in triplicate. Following incubation for 24 h at 37 °C, cell viability was evaluated using the 2,3-bis(2-methoxy-4-nitro-5-sulfophenyl)-2H-tetrazolium-5-carboxanilide (XTT) cell proliferation assay kit (Biological Industries, Israel) according to the manufacturer’s instructions. Briefly, 100 µL of activation reagent was added to 5 mL of XTT reagent, followed by the addition of 50 µL of activated-XTT solution to each well. After 2 h incubation at 37 °C, color intensity was measured using an ELISA microplate reader at 450 nm and 630 nm. Results are presented as mean and mean standard error. Each experiment was repeated minimum three times.

Aβ42 [3] = biological target: T1, Aβ42; assay: CD spectroscopy of Aβ42 aggregated with the tested molecules; details: 5-fold molar excess of compound
Procedure: The blank was subtracted from the acquired CD spectra. For the CD study in the presence of the tryptophan-galacosylamine molecules, the spectra of hybrid molecules were also recorded separately and subtracted from the respective sample spectra. The normalized data were plotted using Origin pro 2015 software.

hIAPP = biological target: T2, hIAPP (Homo sapiens, UniProt P10997); assay: Congo red birefringence of hIAPP fibrils formed with the tested molecules; details: 5-fold molar excess of compound
T2 construct: hIAPP is a 37-amino acid neuroendocrine peptide hormone; purchased Peptide 2.0 (USA)
T2 sequence (P10997 34-70 limits assumed): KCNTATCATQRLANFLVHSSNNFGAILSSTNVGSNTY
Procedure: When hIAPP was incubated with 5-fold molar excess of the hybrid molecules, no typical fibrillar assemblies were observed, rather some amorphous aggregates of different sizes were detected (Fig. 4, upper panel).

T1 sequence (P05067 672-713 limits assumed): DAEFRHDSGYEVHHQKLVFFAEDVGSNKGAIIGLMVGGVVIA

NC(Cc1c[nH]c2ccccc12)C(=O)NC(Cc1c[nH]c2ccccc12)C(=O)O (stereo not shown) [WW]
inhibition of Aβ42 fibril formation (ThT), in words (Aβ42 [1]; any molar ratio (5:1, 1:1, 1:5)): no inhibition effect
% amyloid of Aβ42 (Aβ42 [1]; molar ratio Aβ42:tested molecule 1:1): 98.904%
% amyloid of Aβ42 (Aβ42 [1]; molar ratio Aβ42:tested molecule 1:5): 105.519%
% amyloid of Aβ42 (Aβ42 [1]; molar ratio Aβ42:tested molecule 5:1): 93.190%
Normalized ThT fluorescence (Aβ42 [1]; time 0.000 h): 100.247
Normalized ThT fluorescence (Aβ42 [1]; time 0.167 h): 60.188
Normalized ThT fluorescence (Aβ42 [1]; time 0.333 h): 57.612
Normalized ThT fluorescence (Aβ42 [1]; time 0.500 h): 73.246
Normalized ThT fluorescence (Aβ42 [1]; time 0.667 h): 91.915
Normalized ThT fluorescence (Aβ42 [1]; time 0.833 h): 133.372
Normalized ThT fluorescence (Aβ42 [1]; time 1.000 h): 185.130
Normalized ThT fluorescence (Aβ42 [1]; time 1.167 h): 238.325
Normalized ThT fluorescence (Aβ42 [1]; time 1.333 h): 306.731
Normalized ThT fluorescence (Aβ42 [1]; time 1.500 h): 377.171
Normalized ThT fluorescence (Aβ42 [1]; time 1.667 h): 441.860
Normalized ThT fluorescence (Aβ42 [1]; time 1.833 h): 512.406
Normalized ThT fluorescence (Aβ42 [1]; time 2.000 h): 563.139
Normalized ThT fluorescence (Aβ42 [1]; time 2.167 h): 622.335
Normalized ThT fluorescence (Aβ42 [1]; time 2.333 h): 703.467
Normalized ThT fluorescence (Aβ42 [1]; time 2.500 h): 748.995
Normalized ThT fluorescence (Aβ42 [1]; time 2.667 h): 831.052
Normalized ThT fluorescence (Aβ42 [1]; time 2.833 h): 768.926
Normalized ThT fluorescence (Aβ42 [1]; time 3.000 h): 842.887
Normalized ThT fluorescence (Aβ42 [1]; time 3.167 h): 889.978
Normalized ThT fluorescence (Aβ42 [1]; time 3.333 h): 935.606
Normalized ThT fluorescence (Aβ42 [1]; time 3.500 h): 870.330
Normalized ThT fluorescence (Aβ42 [1]; time 3.667 h): 968.307
Normalized ThT fluorescence (Aβ42 [1]; time 3.833 h): 972.259
Normalized ThT fluorescence (Aβ42 [1]; time 4.000 h): 873.484
Normalized ThT fluorescence (Aβ42 [1]; time 4.167 h): 934.106
Normalized ThT fluorescence (Aβ42 [1]; time 4.333 h): 1006.391
Normalized ThT fluorescence (Aβ42 [1]; time 4.500 h): 929.674
Normalized ThT fluorescence (Aβ42 [1]; time 4.667 h): 937.654
Normalized ThT fluorescence (Aβ42 [1]; time 4.833 h): 1043.183
Normalized ThT fluorescence (Aβ42 [1]; time 5.000 h): 1070.273
Normalized ThT fluorescence (Aβ42 [1]; time 5.167 h): 1001.135
Normalized ThT fluorescence (Aβ42 [1]; time 5.333 h): 988.346
Normalized ThT fluorescence (Aβ42 [1]; time 5.500 h): 1039.570
Normalized ThT fluorescence (Aβ42 [1]; time 5.667 h): 1028.736
Normalized ThT fluorescence (Aβ42 [1]; time 5.833 h): 1034.411
Normalized ThT fluorescence (Aβ42 [1]; time 6.000 h): 1074.727
Normalized ThT fluorescence (Aβ42 [1]; time 6.167 h): 1044.333
Normalized ThT fluorescence (Aβ42 [1]; time 6.333 h): 1117.377
Normalized ThT fluorescence (Aβ42 [1]; time 6.500 h): 1116.291
Normalized ThT fluorescence (Aβ42 [1]; time 6.667 h): 1054.239
Normalized ThT fluorescence (Aβ42 [1]; time 6.833 h): 1138.465
Normalized ThT fluorescence (Aβ42 [1]; time 7.000 h): 1115.829
Normalized ThT fluorescence (Aβ42 [1]; time 7.167 h): 1058.156
Normalized ThT fluorescence (Aβ42 [1]; time 7.333 h): 1094.730
Normalized ThT fluorescence (Aβ42 [1]; time 7.500 h): 1092.412
Normalized ThT fluorescence (Aβ42 [1]; time 7.667 h): 1062.031
Normalized ThT fluorescence (Aβ42 [1]; time 7.833 h): 1136.103
Normalized ThT fluorescence (Aβ42 [1]; time 8.000 h): 1128.627
Normalized ThT fluorescence (Aβ42 [1]; time 8.167 h): 1116.746
Normalized ThT fluorescence (Aβ42 [1]; time 8.333 h): 1080.689
Normalized ThT fluorescence (Aβ42 [1]; time 8.500 h): 1146.007
Normalized ThT fluorescence (Aβ42 [1]; time 8.667 h): 1085.963
Normalized ThT fluorescence (Aβ42 [1]; time 8.833 h): 1146.093
Normalized ThT fluorescence (Aβ42 [1]; time 9.000 h): 1168.158
Normalized ThT fluorescence (Aβ42 [1]; time 9.167 h): 1195.194
Normalized ThT fluorescence (Aβ42 [1]; time 9.333 h): 1188.939
Normalized ThT fluorescence (Aβ42 [1]; time 9.500 h): 1216.176
Normalized ThT fluorescence (Aβ42 [1]; time 9.667 h): 1201.344
Normalized ThT fluorescence (Aβ42 [1]; time 9.833 h): 1137.291
Normalized ThT fluorescence (Aβ42 [1]; time 10.000 h): 1184.898
Normalized ThT fluorescence (Aβ42 [1]; time 10.167 h): 1153.959
Normalized ThT fluorescence (Aβ42 [1]; time 10.333 h): 1205.518
Normalized ThT fluorescence (Aβ42 [1]; time 10.500 h): 1174.187
Normalized ThT fluorescence (Aβ42 [1]; time 10.667 h): 1185.205
Normalized ThT fluorescence (Aβ42 [1]; time 10.833 h): 1189.623
Normalized ThT fluorescence (Aβ42 [1]; time 11.000 h): 1150.543
Normalized ThT fluorescence (Aβ42 [1]; time 11.167 h): 1169.609
Normalized ThT fluorescence (Aβ42 [1]; time 11.333 h): 1161.417
Normalized ThT fluorescence (Aβ42 [1]; time 11.500 h): 1208.267
Normalized ThT fluorescence (Aβ42 [1]; time 11.667 h): 1187.121
Normalized ThT fluorescence (Aβ42 [1]; time 11.833 h): 1199.506
Normalized ThT fluorescence (Aβ42 [1]; time 12.000 h): 1229.396
Normalized ThT fluorescence (Aβ42 [1]; time 12.167 h): 1189.375
Normalized ThT fluorescence (Aβ42 [1]; time 12.333 h): 1145.079
Normalized ThT fluorescence (Aβ42 [1]; time 12.500 h): 1220.539
Normalized ThT fluorescence (Aβ42 [1]; time 12.667 h): 1203.612
Normalized ThT fluorescence (Aβ42 [1]; time 12.833 h): 1183.933
Normalized ThT fluorescence (Aβ42 [1]; time 13.167 h): 1197.309
Normalized ThT fluorescence (Aβ42 [1]; time 13.333 h): 1166.138
Normalized ThT fluorescence (Aβ42 [1]; time 13.500 h): 1200.493
Normalized ThT fluorescence (Aβ42 [1]; time 13.667 h): 1198.718
Normalized ThT fluorescence (Aβ42 [1]; time 13.833 h): 1242.576
Normalized ThT fluorescence (Aβ42 [1]; time 14.000 h): 1232.657
Normalized ThT fluorescence (Aβ42 [1]; time 14.167 h): 1186.307
Normalized ThT fluorescence (Aβ42 [1]; time 14.333 h): 1161.142
Normalized ThT fluorescence (Aβ42 [1]; time 14.500 h): 1146.151
Normalized ThT fluorescence (Aβ42 [1]; time 14.667 h): 1198.390
Normalized ThT fluorescence (Aβ42 [1]; time 14.833 h): 1196.409
Normalized ThT fluorescence (Aβ42 [1]; time 15.000 h): 1194.696
Normalized ThT fluorescence (Aβ42 [1]; time […]): 1190.377
viability at 24 h, 0.2 µM ([2]; 0.2µM): 93.6%
viability at 24 h, 1 µM ([2]; 1 µM): 98.4%
viability at 24 h, 10 µM ([2]; 10 µM): 94.3%
viability at 24 h, 50 µM ([2]; 50 µM): 84.5%
viability at 24 h, 250 µM ([2]; 250 µM): 83.7%
viability at 24 h, 250 µM ([2]; HEK-293, 250 µM, 24 h): ~83%
effect on Aβ42 secondary structure (CD), in words (Aβ42 [3]): No significant variation
Congo red birefringence of hIAPP, in words (hIAPP): clear gold-green birefringence

Source: paper PMC7468108 (Communications Biology, 2020)
